The values below come from patent US8741867B2, “Retinoid-liposomes for treating fibrosis” (Nitto Denko Corporation, priority 2011, dated 2014).

Where two headings read alike, the source gives them in different places. d = 2'-deoxy (DNA); r = 2'-OH (RNA)

Series [1] concerns 293_HSP47-GFP cell line. In words: Cell viability of 293_HSP47-GFP cells treated with siNA (CellTiter-Glo). The following applies: normalized to scrambled siRNA.
Description: (§2) Cells treated with or without siNA were measured for viability after 72 hours incubation using CellTiter-Glo Luminescent Cell Viability Assay Kit according to the manual (Promega). The readings were normalized to samples treated with scrambled siNA molecules.
(§3) The 293_HSP47-GFP and 293_GP46-GFP cell lines treated with siRNA against hsp47 and gp46 were evaluated for viability using the methods described in Example 2. The cell viability was normalized to cells treated with scrambled siRNA (Ambion).
In series [2] the test system is rat gp46. In words: Inhibition of gp46 expression by prepared siRNA in NRK cells (western blot). The series is classed as cell-based. How it is done:
Normal rat kidney cells (NRK cells), which had rat gp46 and were fibroblasts producing collagen, were transfected with 0.1 nM to 50 nM siRNA and cultured for 12 to 48 hours (FIG. 1). The amount of expression of gp46 was checked by the western blot method (FIGS. 2 to 4, upper band corresponding to gp46, lower band corresponding to actin control). All of the siRNAs inhibited the expression of gp46 protein remarkably compared with a vehicle (FIG. 2).
For orientation: In western blotting, separated proteins are transferred to a membrane and probed.

Series [3] has as its system rat fibroblasts (NRK cells). In words: Inhibition of collagen synthesis by siRNA (3H-proline, collagenase-sensitive fraction). It counts as cell-based. The following applies: siRNA 50 nM, 48 hours, compared with control group. As to the method: In order to examine the amount of collagen synthesized, ^3H-proline was added to the culture supernatant of rat fibroblasts (NRK cells) under the above-mentioned conditions (siRNA concentration 50 nM, time 48 hours), and after transfection the amount of ^3H in secreted protein was examined (FIG. 5). The amount of collagen synthesized was calculated from the ratio of protein secreted in the supernatant to protein degraded by collagenase when culturing gp46siRNA-transfected fibroblasts in the presence of ^3H-proline in accordance with Peterkofsky et al., 1971 Biochemistry 10:988-94. Collagen synthesis ratio=collagenase−sensitive fraction×100(5.4×collagenase−insensitive fraction+collagenase−sensitive fraction)
The collagen synthesis ratio in rat fibroblasts decreased by about 40% compared with a control group (FIG. 6).

The test system of another series is human HSP47. As to the kind of experiment: Inhibitory efficiency of siHsp47 in 293_HSP47-GFP reporter cell line (GFP fluorescence). The series is classed as cell-based. The conditions noted are these: 293_HSP47-GFP cell line, normalized to scrambled siRNA. From the text:
(§1) The fluorescent signals were normalized to fluorescent signals from cells treated with scrambled siRNA (Ambion) which served as a control.

A further series has as its system 293_GP46-GFP cell line. The series is classed as cell-based, human.
Series [4] has as its system 293_HSP47-GFP cell line.
Description: as §2, §3
In another series the test system is hsp47 mRNA. In words: siHsp47 inhibitory effect on hsp47 mRNA by TaqMan qPCR in hTERT cells. It counts as cell-based, human. The conditions noted are these: 72 hours after transfection, normalized to GAPDH. As to the method: In Example 14, the knock down efficiency of siHsp47s in reporter cell lines was evaluated by change in fluorescent signal. To validate the results at the mRNA level, siRNAs targeting endogenous hsp47 were transfected into cells of the human HSC cell line hTERT using Lipofectamine RNAiMAX (Invitrogen) in a reverse transfection manner as described in Example 13
The hsp47 mRNA level was evaluated for knock down efficiency of the various tested siHsp47 siNA molecules. Briefly, mRNA were isolated from hTERT cells after 72 hours after transfection using an RNeasy mini kit (Qiagen). The level of hsp47 mRNA was determined by reverse transcription coupled with quantitative PCR using TaqMan® probes. Briefly, cDNA synthesis was carried out using High-Capacity cDNA Reverse Transcription Kit (ABI) according to the manufacturer's instruction, and subjected to TaqMan Gene Expression Assay (ABI, hsp47). The level of hsp47 mRNA was normalized to the level of GAPDH mRNA according to the manufacturer's instruction (ABI).
On the technique in general: Real-time PCR tracks product formation cycle by cycle.

In series [5] the test system is rat gp46. As to the kind of experiment: Inhibitory efficiency of siHsp47 in 293_GP46-GFP reporter cell line (GFP fluorescence). It counts as cell-based. The following applies: 293_GP46-GFP cell line, normalized to scrambled siRNA.
Description: as §1

A further series relates to collagen I mRNA. In words: Downregulation of collagen I expression by hsp47 siRNA in hTERT cells (TaqMan qPCR). It counts as cell-based, human. The conditions noted are these: 72 hours, normalized to GAPDH and scrambled siNA. As to the method:
To determine the effect of siHsp47 on collagen I expression level, collagen I mRNA level in hTERT cells treated with different siRNA against hsp47 was measured. Briefly, hTERT cells were transfected with different siHsp47 as described in Example 13. The cells were lysed after 72 hours and mRNA were isolated using RNeasy mini kit according to the manual (Qiagen). The level of collagen 1 mRNA was determined by reverse transcription coupled with quantitative PCR using TaqMan® probes. Briefly, cDNA synthesis was carried out using High-Capacity cDNA Reverse Transcription Kit (ABI) according to the manual, and subjected to TaqMan Gene Expression Assay (ABI, COL 1A1 assay). The level of collagen I mRNA was normalized to the level of GAPDH mRNA according to the manufacturer's instruction (ABI). The signals were normalized to the signal obtained from cells transfected with scrambled siNA.

The subject of a further series is HSP47 protein. In words: siHsp47 knock down effect at the protein level in hTERT cells (western blot). The series is classed as cell-based, human. The following applies: hTERT cell lysate. How it is done:
The inhibitory effect of different Hsp47 siNA molecules (siHsp47) on hsp47 mRNA expression were validated at the protein level by measuring the HSP47 in hTERT cells transfected with different siHsp47. Transfection of hTERT cells with different siHsp47 were performed as described in Example 13. Transfected hTERT cells were lysed and the cell lysate were clarified by centrifugation. Proteins in the clarified cell lysate were resolved by SDS polyacrylamide gel electrophoresis. The level of HSP47 protein in the cell lysate were determined using an anti-HSP47 antibody (Assay Designs) as the primary antibody, Goat anti-mouse IgG conjugated with HRP (Millipore) as the secondary antibody, and subsequently detected by Supersignal West Pico Chemiluminescence kit (Pierce). Anti-actin antibody (Abcam) was used as a protein loading control.

Description for 293_GP46-GFP cell line: as §2, §3

For “siHsp47-6: siRNA to human hsp47 cDNA 446-464, 19-mer duplex; SEQ ID NO 53/54 (chain 1 GCAGCAAGCAGCACUACAAUU; chain 2 UUGUAGUGCUGCUUGCUGCUU; chemistry not fully specified)”, in the series on 293_HSP47-GFP cell line [1], the “cell viability / cytotoxicity” value is “lower”.
Regarding “Sequence A: siRNA for rat gp46, GUUCCACCAUAAGAUGGUAGACAAC (SEQ ID NO: 2728) (chemistry not given here)”, in the series with rat gp46 [2] (0.1 nM to 50 nM siRNA), the “inhibition of gp46 expression, dependence on concentration” value was “concentration dependent”. Besides, the “inhibition of gp46 protein expression” value in the series with rat gp46 [2] (50 nM siRNA, 48 hours) is “about 90%”. In addition, the “expression of gp46 protein (western blot)” value with rat gp46 [2] (24 hour culturing, examination of optimal sequence, compared with vehicle) was “strongest effect”. In addition, in series [3], the “decrease of collagen synthesis ratio” value is listed as “about 40%”.
“Hsp47-7: siRNA to human hsp47 cDNA 692-710, 19-mer duplex; SEQ ID NO 57/58 (chain 1 CCGUGGGUGUCAUGAUGAUUU; chain 2 AUCAUCAUGACACCCACGGUU; chemistry not fully specified)”: the “cell viability / cytotoxicity” value with 293_HSP47-GFP cell line [1] is reported as “lower”.
As for “siHsp47-2d: siRNA to human hsp47 cDNA 469-493, 25-mer duplex; sense GAGCACUCCAAGAUCAACUUCCGdCdG (SEQ ID NO 25/26) (sense GAGCACUCCAAGAUCAACUUCCGCG; antisense GCGGAAGUUGAUCUUGGAGUGCUCUU; sense: sugars from the 5' end r23 d2, backbone not given here; antisense: chemistry not given here)”, the “knockdown of human HSP47 (GFP fluorescent signal)” value (from here on “knockdown of human HSP47”) with human HSP47 is listed as “efficiently knockdown”. Besides, the “cell viability / cytotoxicity” value with 293_GP46-GFP cell line and in the series on 293_HSP47-GFP cell line [4] was “without substantial cytotoxicity” throughout. For the same substance, the “knock down of hsp47 mRNA (remaining mRNA level)” value with hsp47 mRNA is listed as “next most effective”. Besides, in the series on rat gp46 [5], the “knockdown of rat GP46 (GFP fluorescent signal)” value (shortened to “knockdown of rat GP46”) is on record as “efficiently knockdown”. The “collagen I mRNA level” value in the series with collagen I mRNA is given as “significantly reduced”. For the same substance, in the series with HSP47 protein, the “level of Hsp47 protein” value is reported as “significant decrease”.
As for “siHsp47-C: siRNA to human and rat hsp47, 19mer duplex, dTdT overhangs; sense GGACAGGCCUCUACAACUAdTdT (SEQ ID NO 5/6) (sense GGACAGGCCUCUACAACUATT; antisense UAGUUGUAGAGGCCUGUCCTT; sugars from the 5' end r19 d2, backbone not given here)”, in the series with human HSP47, the “knockdown of human HSP47” value was “efficiently knockdown”. The “cell viability / cytotoxicity” value in the series with 293_GP46-GFP cell line and with 293_HSP47-GFP cell line [4] was “without substantial cytotoxicity” throughout. For the same substance, in the series with hsp47 mRNA, the “knock down of hsp47 mRNA (remaining mRNA level)” value is “most effective”. The “knockdown of rat GP46” value with rat gp46 [5] is listed as “efficiently knockdown”. For the same substance, the “level of Hsp47 protein” value in the series with HSP47 protein is “significant decrease”.
On to “siHsp47-2: siRNA to human hsp47 cDNA 469-487, 19-mer duplex; sense GAGCACUCCAAGAUCAACUdTdT (SEQ ID NO 21/22) (sense GAGCACUCCAAGAUCAACUTT; antisense AGUUGAUCUUGGAGUGCUCTT; sugars from the 5' end r19 d2, backbone not given here)”, for which, in the series with human HSP47, the “knockdown of human HSP47” value is “efficiently knockdown”. For the same substance, the “cell viability / cytotoxicity” value in the series with 293_GP46-GFP cell line and in the series on 293_HSP47-GFP cell line [4] was “without substantial cytotoxicity” throughout. The “knock down of hsp47 mRNA (remaining mRNA level)” value with hsp47 mRNA was “next most effective”. In addition, the “knockdown of rat GP46” value in the series on rat gp46 [5] is “efficiently knockdown”. In addition, the “collagen I mRNA level” value in the series with collagen I mRNA was “significantly reduced”.
